Measured values published in US20100316529A1, “Anti-Microbial Systems and Methods” (priority 2001, published 2010).
Where “and” joins values, the source holds several entries; their conditions need not be identical. Identical values can stand only once.

Tests used:
Experiment in all cases: EDTA salt dilution test, MIC/MBC
Assay type in all cases: cell-based
E. coli = conditions: three entries
Method: (§1) Protocol one: Broth dilutions:
(§2) Inoculate a 25 ml nutrient broth (Oxoid No2) in a sterile universal container with one of the following organisms; Pseudomonas aeruginosa, Proteus Mirabilis, E. coli, Klebsiella pneumoniae, Staph aureus, Coagulase negative staphylococci, Enterococcus faecalis or MRSA.
(§3) Incubate the broth at 37° C. overnight.
(§4) To make these concentrations put the EDTA needed for 10 mLs in only 9 mLs of broth in sterile universal containers, as this will be diluted further when the organisms are added.
(§5) Dilute the overnight broth cultures to 10^7 organisms/mL using more sterile nutrient broth.
(§6) Add 1 mL of this diluent to each of the EDTA series broths. This gives a final concentration of 10^6 organism/mL in the EDTA broths.
(§7) Incubate for 18 hours at 37° C.
(§8) Next day visually read the MIC's by observing the turbidity of the broths.
(§9) Plate out 1 uL of each dilution onto fresh blood agar plate and spread using a sterile plastic spreader.
(§10) Incubate overnight at 37° C.
(§11) Next day read the MBC's by performing colony counts.

Ent. faecalis = test system: Ent. faecalis
Method: as §1, §2, §3, §4, §5, §6, §7, §8, §9, §10, §11

Kleb. pnemoniae = conditions: two entries
Method: as §1, §2, §3, §4, §5, §6, §7, §8, §9, §10, §11

MRSA = conditions: five entries
Method: as §1, §2, §3, §4, §5, §6, §7, §8, §9, §10, §11

Proteus mirabilis = conditions: two entries
Method: as §1, §2, §3, §4, §5, §6, §7, §8, §9, §10, §11

Pseudomonas aeruginosa = conditions: two entries
Method: as §1, §2, §3, §4, §5, §6, §7, §8, §9, §10, §11

Pseudomonas sp. = test system: Pseudomonas sp.
Method: as §1, §2, §3, §4, §5, §6, §7, §8, §9, §10, §11

S. aureus = conditions: five entries
Method: as §1, §2, §3, §4, §5, §6, §7, §8, §9, §10, §11

S. capitis = conditions: two entries, Exhibit A1
Method: as §1, §2, §3, §4, §5, §6, §7, §8, §9, §10, §11

S. epidermidis = conditions: two entries
Method: as §1, §2, §3, §4, §5, §6, §7, §8, §9, §10, §11

S. lentus = test system: S. lentus
Method: as §1, §2, §3, §4, §5, §6, §7, §8, §9, §10, §11

S. simulans = test system: S. simulans
Method: as §1, §2, §3, §4, §5, §6, §7, §8, §9, §10, §11

S. xylosus = test system: S. xylosus
Method: as §1, §2, §3, §4, §5, §6, §7, §8, §9, §10, §11

VRE = conditions: two entries
Method: as §1, §2, §3, §4, §5, §6, §7, §8, §9, §10, §11

Ent. faeculm = test system: Ent. faeculm
Kleb. oxytoca = test system: Kleb. oxytoca
Kleb. ornitholytica = test system: Kleb. ornitholytica
Ent. cloacae = conditions: three entries
Steno. maltophilia = test system: Steno. maltophilia
Cornyeform amycolatum = test system: Cornyeform amycolatum
Coryneform strait/amy = test system: Coryneform strait/amy
Proteus vulgaris = test system: Proteus vulgaris

O=C([O-])CN(CCN(CC(=O)[O-])CC(=O)[O-])CC(=O)[O-].[Mg+2].[Na+].[Na+] [Magnesium disodium EDTA]
<0.5 mg/mL: MIC, minimum concentration required to inhibit growth (Cornyeform amycolatum; Exhibit A2) | MIC, minimum concentration required to inhibit growth (Coryneform strait/amy; Exhibit A2)
>30 mg/mL: MBC, minimum concentration required to kill an entire population (E. coli; Exhibit A1) | MIC, minimum concentration required to inhibit growth (E. coli; Exhibit A2) | MBC, minimum concentration required to kill an entire population (Ent. faecalis; Exhibit A1) | MIC, minimum concentration required to inhibit growth (Ent. faecalis; Exhibit A2) | MBC, minimum concentration required to kill an entire population (Kleb. pnemoniae; Exhibit A1) | MIC, minimum concentration required to inhibit growth (Kleb. pnemoniae; Exhibit A2) | MBC, minimum concentration required to kill an entire population (MRSA; Exhibit A1) | MIC, minimum concentration required to inhibit growth (MRSA; Exhibit A2) | MBC, minimum concentration required to kill an entire population (Proteus mirabilis; Exhibit A1) | MIC, minimum concentration required to inhibit growth (Proteus mirabilis; Exhibit A2) | MBC, minimum concentration required to kill an entire population (Pseudomonas aeruginosa; Exhibit A1) | MIC, minimum concentration required to inhibit growth (Pseudomonas aeruginosa; Exhibit A2) | MBC, minimum concentration required to kill an entire population (Pseudomonas sp.; Exhibit A1) | MIC, minimum concentration required to inhibit growth (Pseudomonas sp.; Exhibit A2) | MBC, minimum concentration required to kill an entire population (S. aureus; Exhibit A1) | MIC, minimum concentration required to inhibit growth (S. aureus; Exhibit A2) | MBC, minimum concentration required to kill an entire population (S. capitis) | MBC, minimum concentration required to kill an entire population (S. lentus; Exhibit A1) | MBC, minimum concentration required to kill an entire population (S. simulans; Exhibit A1) | MBC, minimum concentration required to kill an entire population (S. xylosus; Exhibit A1) | MBC, minimum concentration required to kill an entire population (VRE; Exhibit A1) | MBC, minimum concentration required to kill an entire population (Ent. faeculm; Ent. faeculm, Exhibit A1) | MBC, minimum concentration required to kill an entire population (Kleb. oxytoca; Exhibit A1) | MIC, minimum concentration required to inhibit growth (Kleb. oxytoca; Exhibit A2) | MBC, minimum concentration required to kill an entire population (Kleb. ornitholytica; Exhibit A1) | MIC, minimum concentration required to inhibit growth (Kleb. ornitholytica; Exhibit A2) | MBC, minimum concentration required to kill an entire population (Ent. cloacae; Exhibit A1) | MIC, minimum concentration required to inhibit growth (Ent. cloacae; Exhibit A2) | MBC, minimum concentration required to kill an entire population (Steno. maltophilia; Exhibit A1) | MIC, minimum concentration required to inhibit growth (Steno. maltophilia; Exhibit A2) | MIC, minimum concentration required to inhibit growth (Proteus vulgaris; Exhibit A2)
25 mg/mL and >30 mg/mL: MIC, minimum concentration required to inhibit growth (VRE; Exhibit A2)
2 mg/mL: MIC, minimum concentration required to inhibit growth (S. xylosus; Exhibit A2)
6 mg/mL: MIC, minimum concentration required to inhibit growth (S. epidermidis; Exhibit A2) | MIC, minimum concentration required to inhibit growth (S. lentus; Exhibit A2)
30 mg/mL: MBC, minimum concentration required to kill an entire population (S. epidermidis; Exhibit A1)
.30 mg/mL: MBC, minimum concentration required to kill an entire population (Proteus vulgaris; Exhibit A1)
1.5 mg/mL: MIC, minimum concentration required to inhibit growth (S. simulans; Exhibit A2) | MIC, minimum concentration required to inhibit growth (Ent. faeculm; Ent. faecuim, Exhibit A2)
4 mg/mL: MBC, minimum concentration required to kill an entire population (Cornyeform amycolatum; Exhibit A1) | MBC, minimum concentration required to kill an entire population (Coryneform strait/amy; Exhibit A1)
